Blank lines part the entries; values can stand above or below the compound they belong to.
Tested on: 186277-243-T-J2-PDC multi-cell spheroid viability
Assay: Anticancer human tumor 186277-243-T-J2-PDC patient-derived colon adenocarcinoma cell line growth inhibition [PI3K]
Settings: for IC50: curve of first compound; for viability, T/C: stronger effect = lower value
Summary of the method: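 We assembled tumor spheroids that included a stromal compartment of HUVEC and MSCs, then exposed them to targeted agents alone and together with PI3K pathway inhibitors. Concentration series descended by half-log from clinically achievable Cmax levels. Viability served as the endpoint.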

[1] = second compound 0.0316 µM, first compound 0.000316 µM
[2] = second compound 0.0316 µM, first compound 0.001 µM
[3] = second compound 0.0316 µM, first compound 0.00316 µM
[4] = second compound 0.0316 µM, first compound 0.01 µM
[5] = second compound 0.0316 µM, first compound 0.0316 µM
[6] = second compound 0.0316 µM, first compound 0.1 µM
[7] = second compound 0.1 µM, first compound 0.000316 µM
[8] = second compound 0.1 µM, first compound 0.001 µM
[9] = second compound 0.1 µM, first compound 0.00316 µM
[10] = second compound 0.1 µM, first compound 0.01 µM
[11] = second compound 0.1 µM, first compound 0.0316 µM
[12] = second compound 0.1 µM, first compound 0.1 µM
[13] = second compound 0.316 µM, first compound 0.000316 µM
[14] = second compound 0.316 µM, first compound 0.001 µM
[15] = second compound 0.316 µM, first compound 0.00316 µM
[16] = second compound 0.316 µM, first compound 0.01 µM
[17] = second compound 0.316 µM, first compound 0.0316 µM
[18] = second compound 0.316 µM, first compound 0.1 µM
[19] = second compound 1 µM, first compound 0.000316 µM
[20] = second compound 1 µM, first compound 0.001 µM
[21] = second compound 1 µM, first compound 0.00316 µM
[22] = second compound 1 µM, first compound 0.01 µM
[23] = second compound 1 µM, first compound 0.0316 µM
[24] = second compound 1 µM, first compound 0.1 µM
[25] = second compound 3.16 µM, first compound 0.000316 µM
[26] = second compound 3.16 µM, first compound 0.001 µM
[27] = second compound 3.16 µM, first compound 0.00316 µM
[28] = second compound 3.16 µM, first compound 0.01 µM
[29] = second compound 3.16 µM, first compound 0.0316 µM
[30] = second compound 3.16 µM, first compound 0.1 µM
[31] = second compound 10 µM, first compound 0.000316 µM
[32] = second compound 10 µM, first compound 0.001 µM
[33] = second compound 10 µM, first compound 0.00316 µM
[34] = second compound 10 µM, first compound 0.01 µM
[35] = second compound 10 µM, first compound 0.0316 µM
[36] = second compound 10 µM, first compound 0.1 µM
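Further: spheroids exposed to compounds for seven days before viability reading.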
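Wherever viability, T/C is given: 100% = DMSO vehicle control viability.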

IC50 (second compound 0.0316 µM): > 100 nM | IC50 (second compound 0.1 µM): > 100 nM | IC50 (second compound 0.316 µM): > 100 nM | IC50 (second compound 1 µM): > 100 nM | IC50 (second compound 3.16 µM): 19 nM | IC50 (second compound 10 µM): < 0.316 nM
SMILES: CC(=O)c1c(C)c2cnc(Nc3ccc(N4CCNCC4)cn3)nc2n(C2CCCC2)c1=O + Cc1nc(NC(=O)N2CCCC2C(N)=O)sc1-c1ccnc(C(C)(C)C(F)(F)F)c1
viability, T/C [1]: 96.5% | viability, T/C [2]: 95% | viability, T/C [3]: 96% | viability, T/C [4]: 114% | viability, T/C [5]: 123% | viability, T/C [6]: 138% | viability, T/C [7]: 97.7% | viability, T/C [8]: 106% | viability, T/C [9]: 104% | viability, T/C [10]: 109% | viability, T/C [11]: 136% | viability, T/C [12]: 135% | viability, T/C [13]: 101% | viability, T/C [14]: 113% | viability, T/C [15]: 109% | viability, T/C [16]: 101% | viability, T/C [17]: 124% | viability, T/C [18]: 126% | viability, T/C [19]: 104% | viability, T/C [20]: 102% | viability, T/C [21]: 99.5% | viability, T/C [22]: 107% | viability, T/C [23]: 94.3% | viability, T/C [24]: 83.6% | viability, T/C [25]: 58.7% | viability, T/C [26]: 53.6% | viability, T/C [27]: 59.2% | viability, T/C [28]: 53.3% | viability, T/C [29]: 46.1% | viability, T/C [30]: 37.4% | viability, T/C [31]: 20.9% | viability, T/C [32]: 12.4% | viability, T/C [33]: 13.7% | viability, T/C [34]: 11.6% | viability, T/C [35]: 15.4% | viability, T/C [36]: 10.5%

IC50 (second compound 0.0316 µM): 53.1 nM | IC50 (second compound 0.1 µM): 52.6 nM | IC50 (second compound 0.316 µM): 38 nM | IC50 (second compound 1 µM): 24.5 nM | IC50 (second compound 3.16 µM): 2.04 nM | IC50 (second compound 10 µM): < 0.316 nM
SMILES: CC(C)n1nc(-c2ccc3oc(N)nc3c2)c2c(N)ncnc21 + Cc1nc(NC(=O)N2CCCC2C(N)=O)sc1-c1ccnc(C(C)(C)C(F)(F)F)c1
viability, T/C [1]: 106% | viability, T/C [2]: 90.3% | viability, T/C [3]: 101% | viability, T/C [4]: 101% | viability, T/C [5]: 73.5% | viability, T/C [6]: 21.5% | viability, T/C [7]: 101% | viability, T/C [8]: 107% | viability, T/C [9]: 99.1% | viability, T/C [10]: 87.1% | viability, T/C [11]: 72.1% | viability, T/C [12]: 24.1% | viability, T/C [13]: 114% | viability, T/C [14]: 107% | viability, T/C [15]: 79.9% | viability, T/C [16]: 82.4% | viability, T/C [17]: 63.7% | viability, T/C [18]: 14.7% | viability, T/C [19]: 113% | viability, T/C [20]: 97.5% | viability, T/C [21]: 87.7% | viability, T/C [22]: 76.8% | viability, T/C [23]: 41% | viability, T/C [24]: 6.83% | viability, T/C [25]: 62.1% | viability, T/C [26]: 56.8% | viability, T/C [27]: 46.2% | viability, T/C [28]: 29% | viability, T/C [29]: 14.5% | viability, T/C [30]: 3.88% | viability, T/C [31]: 17.3% | viability, T/C [32]: 16.8% | viability, T/C [33]: 10.8% | viability, T/C [34]: 13.1% | viability, T/C [35]: 6.47% | viability, T/C [36]: 2.92%

From PubChem BioAssay AID1963983 (Molecular Pharmacology Branch, DTP, NCI, 2024)
